# How the values were obtained:
# Experiment in all cases: relative viability (nuclei count vs DMSO), 5 days (fraction); higher = more cells survive
# Cediranib + Pictilisib = compound: COc1cc2c(Oc3ccc4[nH]c(C)cc4c3F)ncnc2cc1OCCCN1CCCC1 [Cediranib] + CS(=O)(=O)N1CCN(Cc2cc3nc(-c4cccc5[nH]ncc45)nc(N4CCOCC4)c3s2)CC1 [Pictilisib] (partner 1 µM)
# Summary of the method: (§1)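 Lung cancer cell lines in 1536-well plates were dosed by pin tool the day after seeding, either with one drug alone or with a fixed anchor-drug dose plus five library-drug doses (not always all listed) in √10 steps. After 5 days, cells were fixed and their nuclei stained in one step (final 0.05% Triton X-100, 1% formaldehyde, 1 ug/ml Hoechst), then counted on 4× images. Relative viability is the nuclei count in treated wells divided by that in vehicle wells. Values are medians of duplicate plates.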
# [1] = compound: O=C(C[C@H]1NCCC[C@@H]1O)Cn1cnc2cc(Br)c(Cl)cc2c1=O (racemic) [Halofuginone] + CCNC(=O)c1noc(-c2cc(C(C)C)c(O)cc2O)c1-c1ccc(CN2CCOCC2)cc1 [Luminespib] (partner 0.01 µM)
# Summary of the method: as §1
# Cediranib + Palbociclib = compound: COc1cc2c(Oc3ccc4[nH]c(C)cc4c3F)ncnc2cc1OCCCN1CCCC1 [Cediranib] + CC(=O)c1c(C)c2cnc(Nc3ccc(N4CCNCC4)cn3)nc2n(C2CCCC2)c1=O [Palbociclib] (partner 0.5 µM)
# Summary of the method: as §1
# Cediranib + Olaparib = compound: COc1cc2c(Oc3ccc4[nH]c(C)cc4c3F)ncnc2cc1OCCCN1CCCC1 [Cediranib] + O=C(c1cc(Cc2n[nH]c(=O)c3ccccc23)ccc1F)N1CCN(C(=O)C2CC2)CC1 [Olaparib] (partner 8 µM)
# Summary of the method: as §1
cell line,measurement,setting,value
UMC-11,relative viability,Cediranib + Pictilisib; first compound 0.04 µM,1.01
same,relative viability,Cediranib + Pictilisib; first compound 0.1265 µM,0.316
same,relative viability,Cediranib + Pictilisib; first compound 0.4 µM,0.707
same,relative viability,Cediranib + Pictilisib; first compound 1.265 µM,0.466
same,relative viability,Cediranib + Pictilisib; first compound 4 µM,0.862
same,relative viability,[1]; first compound 0.001 µM,1.08
same,relative viability,[1]; first compound 0.003162 µM,1.05
same,relative viability,[1]; first compound 0.01 µM,1.02
same,relative viability,[1]; first compound 0.03162 µM,0.703
same,relative viability,[1]; first compound 0.1 µM,0.412
same,relative viability,Cediranib + Palbociclib; first compound 0.04 µM,0.345
same,relative viability,Cediranib + Palbociclib; first compound 0.1265 µM,0.341
same,relative viability,Cediranib + Palbociclib; first compound 0.4 µM,0.315
same,relative viability,Cediranib + Palbociclib; first compound 1.265 µM,0.328
same,relative viability,Cediranib + Palbociclib; first compound 4 µM,0.359
same,relative viability,Cediranib + Olaparib; first compound 0.04 µM,0.373
same,relative viability,Cediranib + Olaparib; first compound 0.1265 µM,0.335
same,relative viability,Cediranib + Olaparib; first compound 0.4 µM,0.371
same,relative viability,Cediranib + Olaparib; first compound 1.265 µM,0.388
same,relative viability,Cediranib + Olaparib; first compound 4 µM,0.406

# Reference: the supplement of paper PMC10307832
